Measurements: US20250066341A1 (CHIESI FARMACEUTICI S.P.A., priority 2021, published 2025)

Each molecule was assayed against T1, human recombinant LPA1 expressed in CHO cells (Homo sapiens, UniProt Q92633) (assay: FLIPR calcium mobilization assay, LPA1 antagonism in CHO-hLPA1 cells). Details: inhibition of LPA EC80 Ca2+ response, 30 min pre-incubation, expressed as range of activity.
T1 construct: expressed in transfected cells; host or cells: CHO cells (CHO-hLPA1 cell line)
T1 sequence (Q92633 whole entry): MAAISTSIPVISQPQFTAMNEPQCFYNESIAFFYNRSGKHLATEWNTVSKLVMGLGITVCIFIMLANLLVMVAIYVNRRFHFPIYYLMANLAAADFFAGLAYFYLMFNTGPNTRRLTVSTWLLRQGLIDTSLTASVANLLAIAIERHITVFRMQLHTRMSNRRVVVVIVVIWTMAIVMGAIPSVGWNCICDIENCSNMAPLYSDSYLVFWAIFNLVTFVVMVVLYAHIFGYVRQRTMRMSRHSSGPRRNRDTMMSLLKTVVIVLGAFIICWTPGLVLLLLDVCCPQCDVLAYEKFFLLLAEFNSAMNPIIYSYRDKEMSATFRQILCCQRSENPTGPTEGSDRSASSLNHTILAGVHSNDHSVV
Assay type: cell-based
Summary of the method: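 CHO-hLPA1 cells loaded with 5 μM Cal-520 AM plus 2.5 mM probenecid, 30 min at 37 °C, then pre-incubated 30 min at 37 °C with antagonist (11-point CRC, 0.5% DMSO final) before LPA at EC80. Baseline-subtracted peak fluorescence normalised to % inhibition; pIC50 from four-parameter logistic fit.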
In the case of `Cc1noc(-c2ccc(OCC3CCCCC3C(=O)O)cc2)c1NC(=O)O[C@H](C)c1ccccc1Cl` (stereo partly drawn) [Compound 77, 2-((4-(4-((((R)-1-(2-chlorophenyl)ethoxy)carbonyl)amino)-3-methylisoxazol-5-yl)phenoxy)methyl)cyclohexane-1-carboxylic acid], the IC50 is reported as < 50 nM. With `Cc1noc(-c2ccc(OC[C@H]3CCCC[C@@H]3C(=O)O)cn2)c1NC(=O)O[C@H](C)c1ccccc1Cl` [Compound 78, (1S,2S)-2-(((6-(4-((((R)-1-(2-chlorophenyl)ethoxy)carbonyl)amino)-3-methylisoxazol-5-yl)pyridin-3-yl)oxy)methyl)cyclohexane-1-carboxylic acid] the IC50 was < 50 nM. `Cc1noc(-c2ccc(OCC3CCCCC3C(=O)O)cn2)c1NC(=O)O[C@H](C)c1ccccc1Cl` (stereo partly drawn) [Compound 79, 2-(((6-(4-((((R)-1-(2-chlorophenyl)ethoxy)carbonyl)amino)-3-methylisoxazol-5-yl)pyridin-3-yl)oxy)methyl)cyclohexane-1-carboxylic acid] was tested, and the IC50 was < 50 nM. In the case of `Cc1nc(-c2onc(C)c2NC(=O)O[C@H](C)c2ccccc2Cl)ccc1OC[C@H]1CCCC[C@@H]1C(=O)O` [Compound 80, (1S,2S)-2-(((6-(4-((((R)-1-(2-chlorophenyl)ethoxy)carbonyl)amino)-3-methylisoxazol-5-yl)-2-methylpyridin-3-yl)oxy)methyl)cyclohexane-1-carboxylic acid], the IC50 is reported as < 50 nM.
